Like-named read-outs stand apart in the source and are kept apart here. One block for each compound: values may come before it.
Key:
hTCPTP1–415 [1] = target: T1, hTCPTP1–415 (Homo sapiens, UniProt P17706); experiment: TCPTP inhibitory activity; format: biochemical; conditions: pNPP substrate; tested up to 100 μM
T1 construct: h TCPTP 1–415 IC 50 (μM ± S.D); made in house
T1 sequence (P17706 1-415): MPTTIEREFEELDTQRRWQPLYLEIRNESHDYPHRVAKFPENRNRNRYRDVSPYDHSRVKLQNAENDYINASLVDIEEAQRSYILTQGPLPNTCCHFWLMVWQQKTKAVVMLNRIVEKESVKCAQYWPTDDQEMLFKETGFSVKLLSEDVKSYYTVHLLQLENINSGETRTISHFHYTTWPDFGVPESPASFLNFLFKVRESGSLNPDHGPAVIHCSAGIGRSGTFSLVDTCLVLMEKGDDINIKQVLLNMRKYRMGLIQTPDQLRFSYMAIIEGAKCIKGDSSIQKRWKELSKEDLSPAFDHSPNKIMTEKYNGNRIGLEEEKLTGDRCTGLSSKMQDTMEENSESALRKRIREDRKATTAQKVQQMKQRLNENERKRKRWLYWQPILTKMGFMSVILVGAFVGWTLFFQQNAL
Protocol: The effectiveness and safety of a PTP1B inhibitor primarily depend on its selectivity, given that protein tyrosine phosphatases share significant structural homology within their catalytic domains. […] Ertiprotafib was also included in this study.
(§1) Aliquots of 0–10 μL of the test compounds (triplicate) were taken and incubated for 15 min at 37 °C with 85 μL of Tris buffer solution (50 mM, pH 6.8) containing PTP1B enzyme and 5 μL of p-nitrophenyl phosphate substrate (pNPP, 10 mM). The absorbance of the hydrolysis product, p-nitrophenol (pNP), was measured at 405 nm using a 96-microplate absorbance reader (Accuris SmartReader 96). The inhibitory activity was determined according to eq . %enzyme=(A405b/A405c)×100 1 Where: % enzyme is the percentage of inhibition for PTP1B or TCPTP
(§2) The IC50 was calculated using regression analysis, eq : %inhibition=A100/1+(I/IC50)^s 2 Where: A100: Maximum inhibition

hPTP1B1–400 [2] = target: T2, hPTP1B1–400 (Homo sapiens, UniProt P18031); experiment: Enzymatic kinetics studies (Lineweaver–Burk, model fitting); format: biochemical; conditions: for inhibition type: hPTP1B1–400, best fit model; for Km / Vmax: hPTP1B1–400 with inhibitor
T2 construct: h PTP1B 1–400 IC 50 (μM ± S.D); made in house
T2 sequence (P18031 1-400): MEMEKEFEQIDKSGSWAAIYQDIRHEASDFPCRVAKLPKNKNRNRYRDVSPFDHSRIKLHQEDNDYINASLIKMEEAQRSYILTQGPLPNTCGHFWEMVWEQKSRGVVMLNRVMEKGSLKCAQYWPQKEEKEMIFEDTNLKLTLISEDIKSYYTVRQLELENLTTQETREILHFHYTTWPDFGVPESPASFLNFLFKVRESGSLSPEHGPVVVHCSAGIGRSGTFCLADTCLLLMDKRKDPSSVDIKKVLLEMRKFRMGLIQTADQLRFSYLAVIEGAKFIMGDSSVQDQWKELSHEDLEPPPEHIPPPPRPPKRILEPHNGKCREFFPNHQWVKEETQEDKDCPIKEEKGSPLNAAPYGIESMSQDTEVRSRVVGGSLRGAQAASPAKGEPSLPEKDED
Protocol: Kinetic analyses were conducted using varying concentrations of substrate and inhibitor.
Five increasing concentrations of each inhibitor were tested, according to their previously determined IC50 values. The negative control was prepared by omitting the inhibitor in the presence of the enzyme and substrate. The Supporting Information includes detailed eqs (E1–E5) used to determine the kinetic parameters and mechanisms involved in PTP1B inhibition.
Equation 1 was used to obtain enzyme kinetic parameters by fitting data to the Michaelis-Menten model (Origin Pro
The equations defined for the following non-linear inhibition models were used to determine the mechanism of
PTP1B inhibition: competitive (E2), non-competitive (E3), uncompetitive (E4), and mixed (E5) (Origin Pro 2018 (64
(1+ ( ))(x05nh ) + (1+ ( )) (x05 nh)
Vmax is the maximum velocity, x is the substrate concentration, i is the inhibitor concentration, nh is the number of
Hill. Ki is the inhibition constant, and Km is the Michaelis constant.

hPTP1B1–393 = conditions: reported elsewhere; cited from earlier work
hPTP1B1–400 [3] = target: T2, hPTP1B1–400; experiment: PTP1B inhibition, pNPP hydrolysis, long form; format: biochemical; conditions: pNPP substrate, 15 min 37 °C, pH 6.8; ± S.D
Protocol: The inhibitory activity of PTP1B was assessed using the long form of the PTP1B enzyme (hPTP1B1–400). This enzyme comprises a highly conserved N-terminal catalytic domain, known as the PTP domain (PTP1B1–300), in addition to an intrinsically disordered regulatory domain (PTP1B301–400).
The IC50 values obtained from these tests are detailed in Table .
as §1, §2

HFF-1 cells = experiment: Cytotoxicity, Sulforhodamine B assay; format: cell-based, human; conditions: HFF-1 proliferation, 48-h incubation, 0.78 μM to 100 μM
Protocol: Given the significance of a drug candidate’s toxicity in relation to its inhibition potential, a cytotoxicity assay was conducted using Normal Human Foreskin Fibroblasts (HFF-1).
All assays were carried out in triplicate. Cell proliferation was determined by the Sulforhodamine B assay, and the half-maximal cytotoxic concentration (CC50) was determined by Probit analysis.

[4] = tested on: STZ-induced diabetic rats; conditions: earlier study of the group; cited from earlier work
hPTP1B1–400 [5] = target: T2, hPTP1B1–400; conditions: footnote c: IC50 values retrieved from the reference; previously tested by our group; cited from earlier work
hPTP1B1–285 = target: T3, hPTP1B1–285 (Homo sapiens, UniProt P18031); conditions: footnote c: IC50 values retrieved from the reference; cited from earlier work
T3 construct: h PTP1B 1–285 IC 50 (μM ± S.D); made in house
T3 sequence (P18031 1-285): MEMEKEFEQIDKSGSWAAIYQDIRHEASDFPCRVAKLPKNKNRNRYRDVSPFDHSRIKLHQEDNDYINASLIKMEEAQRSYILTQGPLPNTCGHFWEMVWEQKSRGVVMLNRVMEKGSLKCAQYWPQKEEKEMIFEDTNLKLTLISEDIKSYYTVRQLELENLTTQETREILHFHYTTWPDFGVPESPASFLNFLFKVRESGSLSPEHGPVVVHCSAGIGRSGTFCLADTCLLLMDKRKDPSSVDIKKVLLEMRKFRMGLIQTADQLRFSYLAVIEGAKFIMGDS

hTCPTP1–415 [6] = target: T1, hTCPTP1–415; conditions: read-out: hTCPTP1–415 IC50, cited from earlier work
HepG2 cells [7] = experiment: Cell viability of HepG2 with crystal violet; format: cell-based, human; conditions: 1, 10, and 30 µM for 24, 48 and 72 h
Protocol: A 96-well plate was seeded with 3,000 HepG2 cells per well and incubated for 72 h. Subsequently, the cells were treated with test compounds at various concentrations for 24, 48, and 72 h. After incubation, the medium was removed, and 100 μL of 1% glutaraldehyde was added for 15 min. The glutaraldehyde was then removed, and 50 μL of 0.5% crystal violet (dissolved in 25% methanol) was added for 30 min. The crystal violet staining solution was subsequently removed, and the plate was thoroughly rinsed with tap water. The precipitate was dissolved in a 10% acetic acid solution, mixed for 15 min, and the absorbance was measured at 590 nm using a plate reader (xMark Microplate Spectrophotometer, Bio-Rad).
Figure S48. Cell viability assessment by crystal violet staining. HepG2 cell viability was evaluated after treatment with the respective compounds at concentrations of 1 , 10, and 30 µM for 24 , 48 and 72 hours. Bar graphs represent mean ± SEM. No significant differences were detected using ANOVA. […]

HepG2 cells [8] = experiment: Western blotting, HepG2 normal model; format: cell-based, human; conditions: 24 h
Protocol: (§3) HepG2 cells were obtained directly from ATCC (HB-8065) and cultured in DMEM with low glucose, supplemented with fetal bovine serum, 100 U/mL penicillin G, and […] streptomycin. The media was freshly prepared and sterilized by filtration. Cells were maintained with a maximum of 10 passages before being discarded. For cell counting, the cells were washed twice with phosphate-buffered saline (PBS), trypsinized, and counted using a Neubauer chamber. For the insulin-resistant model, 75,000 cells per well were seeded in 6-well plates at 37 °C in 5% CO2 and cultured for 72 h. Subsequently, insulin (0.1 μM) was added to induce insulin resistance for 24 h. After this period, inhibitors were incubated for 24 h, followed by a final 30 min insulin stimulation (0.1 μM) before protein extraction. For the normal model, 75,000 cells per well were seeded in 6-well plates at 37 °C in 5% CO2 and cultured for 96 h. After that, the cells were incubated with the inhibitors for 24 h, followed by protein extraction.
(§4) Treated cells were washed twice with 1 mL of PBS, and proteins were extracted using 300 μL of a buffer solution containing 10% sodium deoxycholate in 10% TEAB, supplemented with a protease and phosphatase inhibitor cocktail. The extracts were heated at 80 °C for 5 min and dissociated by repeated passages through an insulin syringe. The cell extracts were centrifuged at 15,000 rpm for 15 min at 4 °C, and the supernatant was collected. Protein quantification was performed using the bicinchoninic acid assay, and aliquots were prepared for Western blotting. SDS-PAGE was conducted, and proteins were transferred onto a nitrocellulose membrane. The membrane was blocked with 10% skim milk in TBST for 1 h and incubated overnight with primary antibodies (1:400 dilution). Secondary antibodies conjugated to horseradish peroxidase were diluted 1:2,000, and the membranes were incubated for 1 h at room temperature. Blots were visualized using the ChemiDoc MP (Bio-Rad), and densitometric analysis was performed with ImageJ (U.S. National Institutes of Health). Statistical analyses were conducted using GraphPad Prism 8.0.
compounds at 24 h of treatment. β-actin was employed as loading control. b) Densitometric analysis of western blot images
employing ImageJ analysis software. Bar graphs represent the mean ± SEM of normalized values. The control levels were set to
1. Asterisks indicate statistical significance according to the Dunn test. p* < 0.05
(§5) (1 picture or pasted object on this page, not shown here)

[9] = tested on: insulin-resistant HepG2 cells; experiment: Western blotting, insulin-resistant HepG2 model; format: cell-based, human; conditions: 24 h
Protocol: as §3, §4
resistance model in HepG2 cells . a) Western blotting representative analysis (n=3) of PTP1B, p -AKT, p-IRS1 and p-STAT3 levels
of HepG2 cells treated with the compounds at 24 h of treatment. β-actin was employed as loading control. b) Densitometric
analysis of western blot images employing ImageJ analysis software. Bar graphs represent the mean ± SEM of normalized values.
The control levels were set to 1. Asterisks indicate statistical significance according to the Dunn test. p* < 0.05.
as §5

hPTP1B1–400 [10] = target: T2, hPTP1B1–400; experiment: PTP1B inhibition, pNPP hydrolysis, long form; format: biochemical

IC50 (hTCPTP1–415 [1]): > 100 µM
inhibition type (hPTP1B1–400 [2]): uncompetitive
Km (hPTP1B1–400 [2]): 940 ± 190 µM
Vmax (hPTP1B1–400 [2]): 1.71 ± 0.24 mM/min
Structure (SMILES): Cc1cc(-c2c3ccccc3c(Br)c3sc(C)c(C)c23)cc(C)c1O[C@H](Cc1ccccc1)C(=O)O [Ertiprotafib, reference compound]
inhibition type (hPTP1B1–393): noncompetitive inhibition

IC50 (hPTP1B1–400 [3]): 1.75 ± 0.08 µM
Structure (SMILES): CC1(C)c2[nH]c3ccc(C(F)(F)F)cc3c2C[C@]2(C)[C@H]3C(=O)C=C4[C@@H]5C[C@@](C)(C(=O)O)CC[C@]5(C)CC[C@@]4(C)[C@]3(C)CC[C@@H]12 [FC-114, reference compound]
CC50 (HFF-1 cells): 59.5 ± 3 µM
antihyperglycemic effects [4]: superior antihyperglycemic effects compared to glibenclamide and acarbose, but did not outperform pioglitazone

Structure (SMILES): O=C(O)C(=O)Nc1sc2c(c1C(=O)O)CCNC2 [TCS401]
IC50 (hPTP1B1–400 [5]): 8.1 ± 1 µM
IC50 (hPTP1B1–285): 12.4 ± 1 µM
IC50 (hTCPTP1–415 [6]; footnote c: IC50 values retrieved from the reference, previously tested by our group): 6.7 ± 0.6 µM

Structure (SMILES): C[C@H]1[C@H](C)CC[C@]2(C(=O)O)CC[C@]3(C)C(=CC[C@@H]4[C@@]5(C)CC[C@H](O)C(C)(C)[C@@H]5CC[C@]43C)[C@H]12 [Ursolic acid]
inhibition type (hPTP1B1–400 [2]): mixed-type
inhibition type (hPTP1B1–400 [2]; listed as ursolic acid): mixed
Km (hPTP1B1–400 [2]): 1700 ± 330 µM
Vmax (hPTP1B1–400 [2]): 0.63 ± 0.08 mM/min
HepG2 cell viability (HepG2 cells [7]): No significant differences
AKT phosphorylation (p-AKT) levels (HepG2 cells [8]): did not show significant changes
PTP1B levels (HepG2 cells [8]): neither metformin, ursolic acid, nor the GA derivatives significantly reduced PTP1B levels
p-IRS levels (HepG2 cells [8]): did not show significant changes
p-STAT3 levels (HepG2 cells [8]): did not show significant changes
AKT phosphorylation (p-AKT) levels [9]: did not show significant changes
PTP1B levels [9]: neither metformin, ursolic acid, nor the GA derivatives significantly reduced PTP1B levels
p-IRS levels [9]: did not show significant changes
p-STAT3 levels [9]: did not show significant changes
IC50 (hTCPTP1–415 [6]; footnote b: IC50 values retrieved from the reference): > 400 µM

Structure (SMILES): CC1(C)c2c(cnn2-c2ccc(C(=O)O)cc2)C[C@]2(C)[C@H]3C(=O)C=C4[C@@H]5C[C@@](C)(C(=O)O)CC[C@]5(C)CC[C@@]4(C)[C@]3(C)CC[C@@H]12 [compound 5e, (20β)-2′-(4-Carboxyphenyl)-11-oxo-2′H-oleana-2,12-dieno[3,2-c]pyrazol-29-oic Acid]
stability during evaluation (hPTP1B1–400 [10]): unstable and rapidly degraded during evaluation

— article PMC12921516 (ACS Bio & Med Chem Au, 2025)
